The test system of this assay is 5' FAM-CoA-seq10 aptamer (DNA, aptamer) ATGCAGTCGGCGTCGGACAGGCAAAGGGGAGAGTGATTATAATCACTCGGGACATGGGATCTGTCCGACGATGTAACGCTTCAC
Description: fluorescence strand displacement. The settings on record: apparent; 50 nM aptamer, 1:5 3'-BHQ1 capture strand CTGTCCGACGCCGAC displaced.

For `CC(C)(COP(=O)(O)OP(=O)(O)OC[C@H]1O[C@@H](n2cnc3c(N)ncnc32)[C@H](O)[C@@H]1OP(=O)(O)O)[C@@H](O)C(=O)NCCC(=O)NCCS`, the Kd came to 1133 µM.

(Values after publication PMC11976443 (2025).)
